The values that follow come from US10076491B2, “Vaccine composition” (NITTO DENKO CORPORATION, priority 2013, dated 2018).

The subject of this assay is IFN-γ-producing cells (spleen cells). The assay is described as follows: Mouse immunization test with cream formulation for transdermal administration, ELISPOT method (IFN-γ). The class given is in vivo. Particulars: FIG. 1 / Table 2, combination with Th1 adjuvant imiquimod (IMQ), OVAp. On the procedure: Spleen cells (3×10^6 cells/well) and an antigen peptide (100 μM) or an antigen protein (100 μg/mL) together with the culturing medium were placed into a well of an ELISPOT plate on which an anti-mouse IFN-γ antibody had been immobilized. The plate was cultured for 20 hours under the condition of 37° C. and 5% CO2. The number of the spots representing IFN-γ-producing cells (spot number/3×10^6 cells) was evaluated by the ELISPOT method.
Mouse Immunization Test with Cream Formulation for Transdermal Administration
Mouse immunization test was performed with the cream formulations prepared as described above using a model animal for immunological evaluation. The immunity induction level was evaluated by ELISPOT method. Specifically, the hair of the back of the mouse was cut, and the mouse was kept until it recovered from the skin damage due to the hair cutting. After that, 4 mg of each cream formulation was applied to the skin of the back of the mouse for 24 hours, and then removed. After 6 days, the level of the cellular immunity induction specific for the antigen was evaluated. Six days after the administration, the spleen of the mouse was removed to prepare a suspension of spleen cells. […] The number of the spot representing IFN-γ producing cells (spot number/3×10^6 cells) was evaluated by ELISPOT method.

Each structure is given as a SMILES string.

Regarding `COc1ccc2cc3[n+](cc2c1OC)CCc1cc2c(cc1-3)OCO2` [berberine], the “effect of combination of Th2 cell differentiation inhibitor and Th1 adjuvant (ELISPOT)” value is recorded as “synergistic effect”. Under `CC(C(=O)O)c1ccc(CC2CCCC2=O)cc1` (centres unmarked) [loxoprofen] stands “synergistic effect”.
